In assay [1] the target is T1, Gce (germ cell-expressed), Myc-tagged, in vitro translated (Drosophila melanogaster, UniProt Q9VXW7).
T1 sequence (Q9VXW7 271-959): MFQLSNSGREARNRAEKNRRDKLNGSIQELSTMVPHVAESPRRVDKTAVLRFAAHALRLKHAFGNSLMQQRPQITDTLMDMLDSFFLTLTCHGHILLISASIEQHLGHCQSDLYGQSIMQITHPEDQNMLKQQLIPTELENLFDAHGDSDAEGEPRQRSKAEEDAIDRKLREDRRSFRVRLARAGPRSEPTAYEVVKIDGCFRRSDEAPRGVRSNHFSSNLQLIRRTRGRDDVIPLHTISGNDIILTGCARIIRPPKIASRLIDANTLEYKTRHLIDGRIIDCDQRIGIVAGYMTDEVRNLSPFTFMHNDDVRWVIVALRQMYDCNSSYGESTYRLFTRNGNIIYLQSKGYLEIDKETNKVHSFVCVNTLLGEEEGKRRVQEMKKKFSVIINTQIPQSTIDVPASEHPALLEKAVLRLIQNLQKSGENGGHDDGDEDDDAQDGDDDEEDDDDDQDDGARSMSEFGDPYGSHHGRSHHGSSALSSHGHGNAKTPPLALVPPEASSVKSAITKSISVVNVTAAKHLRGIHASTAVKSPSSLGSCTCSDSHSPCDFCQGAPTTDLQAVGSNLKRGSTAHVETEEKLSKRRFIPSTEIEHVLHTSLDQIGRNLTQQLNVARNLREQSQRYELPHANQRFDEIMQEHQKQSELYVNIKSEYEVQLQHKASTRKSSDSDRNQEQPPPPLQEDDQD
Put plainly: competition against R,S-[3H]JH III, glass fiber filter. It counts as binding.

Assay [2] has as its target T2, endogenous Gce in Drosophila S2 cells (JHRE-luc) (Drosophila melanogaster, UniProt Q9VXW7).
T2 construct: endogenous Gce of S2 cells, transfected D. melanogaster Tai and JHRE-luc reporter
Put plainly: JHRE-luc reporter activation in S2 cells. It is filed as cell-based. Conditions: 8 h, transfected Tai, agonist.

Setting [3] is: read-out: Affinity of ligand binding to Gce (Ki)^a.

The structures appear in SMILES notation. Read-outs that look alike come from different tables or passages of the source.

T2 sequence (Q9VLD9 1-2026 partner, one chain of several): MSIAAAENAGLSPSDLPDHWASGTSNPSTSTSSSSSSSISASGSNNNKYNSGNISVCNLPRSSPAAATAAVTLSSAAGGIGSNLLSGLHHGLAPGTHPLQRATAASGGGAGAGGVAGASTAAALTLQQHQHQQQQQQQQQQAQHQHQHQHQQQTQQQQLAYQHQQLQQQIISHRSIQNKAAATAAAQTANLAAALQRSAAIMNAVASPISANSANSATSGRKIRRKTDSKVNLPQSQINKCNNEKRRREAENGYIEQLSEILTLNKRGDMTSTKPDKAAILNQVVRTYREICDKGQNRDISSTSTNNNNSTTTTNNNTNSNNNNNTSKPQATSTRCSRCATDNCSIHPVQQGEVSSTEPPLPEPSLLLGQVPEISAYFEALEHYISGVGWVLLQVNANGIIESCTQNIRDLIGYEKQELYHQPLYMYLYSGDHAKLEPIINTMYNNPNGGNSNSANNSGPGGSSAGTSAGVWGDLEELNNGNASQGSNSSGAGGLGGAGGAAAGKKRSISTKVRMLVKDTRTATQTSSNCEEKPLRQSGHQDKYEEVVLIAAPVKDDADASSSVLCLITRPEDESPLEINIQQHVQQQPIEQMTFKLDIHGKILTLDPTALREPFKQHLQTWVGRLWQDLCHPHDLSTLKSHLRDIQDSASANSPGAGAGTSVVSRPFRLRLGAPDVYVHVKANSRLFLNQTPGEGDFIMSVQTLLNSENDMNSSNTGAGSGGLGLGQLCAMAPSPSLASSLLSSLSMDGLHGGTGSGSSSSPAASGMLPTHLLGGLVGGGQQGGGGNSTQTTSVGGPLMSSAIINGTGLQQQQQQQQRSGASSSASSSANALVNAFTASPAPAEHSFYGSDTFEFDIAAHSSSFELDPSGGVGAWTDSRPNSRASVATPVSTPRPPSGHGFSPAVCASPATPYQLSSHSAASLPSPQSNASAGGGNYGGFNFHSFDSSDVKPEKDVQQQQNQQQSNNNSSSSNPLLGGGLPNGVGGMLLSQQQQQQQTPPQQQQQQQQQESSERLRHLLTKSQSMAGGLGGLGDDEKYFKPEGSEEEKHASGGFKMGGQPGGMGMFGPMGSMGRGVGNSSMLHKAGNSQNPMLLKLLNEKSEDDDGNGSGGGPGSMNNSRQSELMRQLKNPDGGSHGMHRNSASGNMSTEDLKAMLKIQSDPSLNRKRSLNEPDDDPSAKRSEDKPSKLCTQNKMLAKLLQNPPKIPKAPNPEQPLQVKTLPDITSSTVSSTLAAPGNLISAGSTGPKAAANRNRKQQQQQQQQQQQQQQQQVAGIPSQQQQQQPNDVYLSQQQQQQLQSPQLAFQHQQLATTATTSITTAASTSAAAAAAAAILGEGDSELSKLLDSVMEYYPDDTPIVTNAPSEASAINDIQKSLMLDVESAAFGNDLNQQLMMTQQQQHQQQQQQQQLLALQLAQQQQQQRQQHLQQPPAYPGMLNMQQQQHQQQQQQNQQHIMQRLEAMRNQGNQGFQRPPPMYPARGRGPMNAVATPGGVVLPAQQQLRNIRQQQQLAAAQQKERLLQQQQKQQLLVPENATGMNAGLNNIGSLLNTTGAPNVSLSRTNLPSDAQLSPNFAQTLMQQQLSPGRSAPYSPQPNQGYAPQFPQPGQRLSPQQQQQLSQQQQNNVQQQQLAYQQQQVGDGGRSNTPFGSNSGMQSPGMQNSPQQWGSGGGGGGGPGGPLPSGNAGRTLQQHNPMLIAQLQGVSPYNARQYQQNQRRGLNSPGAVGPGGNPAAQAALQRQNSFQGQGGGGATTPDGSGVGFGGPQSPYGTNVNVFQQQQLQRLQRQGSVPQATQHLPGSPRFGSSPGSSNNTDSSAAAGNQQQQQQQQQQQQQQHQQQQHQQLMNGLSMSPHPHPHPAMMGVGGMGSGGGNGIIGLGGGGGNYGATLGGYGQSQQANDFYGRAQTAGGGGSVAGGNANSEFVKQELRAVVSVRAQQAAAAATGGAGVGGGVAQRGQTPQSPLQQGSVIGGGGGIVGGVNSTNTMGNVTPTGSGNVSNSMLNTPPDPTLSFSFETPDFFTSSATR

One may read the Ki as the equilibrium dissociation constant of an inhibitor or competing ligand from its target. Turning to `CC/C(=C\CC/C(C)=C\C(=O)OC)CC[C@H]1O[C@]1(C)CC` [R-(Z,E)-JH I], in assay [1] (setting [3]), the Ki worked out at 2400 nM.
In general, EC50 refers to the concentration at which the effect is half-maximal. Consider `COC(=O)/C=C(\C)CCC1OC1(C)CCC1OC1(C)C` (centres unmarked) [JHB3], for which the EC50 in assay [2] (read-out: EC50) turned out to be 110 ± 10 nM. Also, in assay [1] (read-out: Ki), the Ki was found to be 83.3 ± 40.8 nM.
`CC/C(=C/CC/C(C)=C/C(=O)OC)CC[C@H]1O[C@@]1(C)CC` [S-(E,Z)-JH I]: the Ki in assay [1] (setting [3]) is 447 nM.
For the molecule `COC(=O)/C=C(\C)CC/C=C(\C)CCC1OC1(C)C` (centres unmarked) [R,S-JH III], the EC50 in assay [2] (racemic compound, read-out: EC50) came out at 210 ± 140 nM. Also, in assay [1] (read-out: Ki), the Ki came out at 11 ± 2.2 nM.
On to `CC/C(=C/CC/C(C)=C\C(=O)OC)CC[C@H]1O[C@@]1(C)CC` [S-(Z,Z)-JH I], for which the Ki in assay [1] (setting [3]) was determined as 22600 nM.
Turning to `COC(=O)/C=C(\C)CC/C=C(\C)CC[C@H]1OC1(C)C` [R-JH III], in assay [2] (read-out: EC50), the EC50 worked out at 930 ± 380 nM. Besides, the Ki in assay [1] (read-out: Ki) is 4.8 ± 1.3 nM.
In the case of `CC/C(=C/CC/C(C)=C/C(=O)OC)CC[C@H]1O[C@]1(C)CC` [R-(E,Z)-JH I], the Ki in assay [1] (setting [3]) was found to be 479 nM.
Turning to `CC/C(C)=C/CC/C(=C/CC/C(C)=C/C(=O)OC)CC` [deoxy-JH I, methyl (2E,6E,10E)-7-ethyl-3,11-dimethyltrideca-2,6,10-trienoate], in assay [1] (read-out: Ki), the Ki turned out to be 143 ± 45 nM.
Take `CC/C(=C/CC/C(C)=C\C(=O)OC)CC[C@H]1O[C@]1(C)CC` [R-(Z,Z)-JH I]: the Ki in assay [1] (setting [3]) came to 28900 nM.
Consider `COC(=O)/C=C(\C)CC/C=C(\C)CCC=C(C)C` [MF], for which, in assay [2] (read-out: EC50), the EC50 was 4430 ± 950 nM. In assay [1] (read-out: Ki), the Ki stood at 89.8 ± 26.7 nM.
`COC(=O)/C=C(\C)CC/C=C(\C)CC[C@@H]1OC1(C)C` [S-JH III]: the EC50 in assay [2] (unreliable (no saturation reached)) is 4460 ± 2950 nM. The Ki in assay [1] (read-out: Ki) was 38.3 ± 5.2 nM.
For the molecule `CCOC(=O)NCCOc1ccc(Oc2ccccc2)cc1` [fenoxycarb, ethyl N-[2-(4-phenoxyphenoxy)ethyl]carbamate], the EC50 in assay [2] (read-out: EC50) was found to be 2.29 ± 0.65 nM. Further, the Ki in assay [1] (read-out: Ki) was found to be 2.8 ± 1.1 nM.
Regarding `CC/C(=C\CC/C(C)=C/C(=O)OC)CC[C@H]1O[C@@]1(C)CC` [S-(E,E)-JH I], the EC50 in assay [2] (read-out: EC50) came to 370 ± 220 nM. For the same molecule, in assay [1] (read-out: Ki), the Ki is 13.8 ± 5.1 nM.
Take `CC/C(=C\CC/C(C)=C\C(=O)OC)CC[C@H]1O[C@@]1(C)CC` [S-(Z,E)-JH I]: the Ki in assay [1] (setting [3]) turned out to be 614 nM.
Regarding `CCOC(=O)NCCOc1ccc(CC2CCCCC2O)cc1` (centres unmarked) [W330, Ethyl N-{2-{4-[(2-hydroxycyclohexyl)methyl]phenoxy}ethyl}carbamate], the EC50 in assay [2] (read-out: EC50) was 5.42 ± 0.41 nM. Further, in assay [1] (read-out: Ki), the inhibition constant Ki turned out to be 17.4 ± 5.7 nM.

Values taken from article PMC6333893, “Exquisite ligand stereoselectivity of a Drosophila juvenile hormone receptor contrasts with its broad agonist repertoire” (The Journal of Biological Chemistry, 2018).
